Measurements published in EPA's CvTdb concentration-time database.

Experiments:
Rat [1] = assay: concentration in lung after dosing; settings: dosed: 2,3,7,8-Tetrachlorodibenzo-p-dioxin, oral, Female, Sprague-Dawley
Rat [2] = assay: concentration in liver after dosing; settings: 24 h; dosed: 2,3,7,8-Tetrachlorodibenzo-p-dioxin; 0.0001 mg/kg; oral; Female; Sprague-Dawley
Rat [3] = assay: concentration in liver after dosing; settings: dosed: 2,3,7,8-Tetrachlorodibenzo-p-dioxin, oral, Female, Sprague-Dawley
Rat [4] = assay: concentration in liver after dosing; settings: 24 h; dosed: 2,3,7,8-Tetrachlorodibenzo-p-dioxin; 0.0001 mg/kg; oral; Female; Sprague-Dawley; remark: listed apart in the source
Rat [5] = assay: concentration in liver after dosing; settings: 24 h; dosed: 2,3,7,8-Tetrachlorodibenzo-p-dioxin; 0.0001 mg/kg; oral; Female; Sprague-Dawley; remark: listed apart in the source
Rat [6] = assay: concentration in liver after dosing; settings: 24 h; dosed: 2,3,7,8-Tetrachlorodibenzo-p-dioxin; 0.0001 mg/kg; oral; Female; Sprague-Dawley; remark: listed apart in the source
Rat [7] = assay: concentration in liver after dosing; settings: 24 h; dosed: 2,3,7,8-Tetrachlorodibenzo-p-dioxin; 0.00005 mg/kg; oral; Female; Sprague-Dawley
Rat [8] = assay: concentration in plasma after dosing; settings: dosed: 2,3,7,8-Tetrachlorodibenzo-p-dioxin, 0.0001 mg/kg, oral, Female, Sprague-Dawley
Rat [9] = assay: concentration in adipose after dosing; settings: 1680 h; dosed: 2,3,7,8-Tetrachlorodibenzo-p-dioxin; 0.0001 mg/kg; oral; Female; Sprague-Dawley
Rat [10] = assay: concentration in adipose after dosing; settings: 1680 h; dosed: 2,3,7,8-Tetrachlorodibenzo-p-dioxin; 0.0001 mg/kg; oral; Female; Sprague-Dawley; remark: listed apart in the source
Rat [11] = assay: concentration in adipose after dosing; settings: 480 h; dosed: 2,3,7,8-Tetrachlorodibenzo-p-dioxin; 0.00005 mg/kg; oral; Female; Sprague-Dawley
Rat [12] = assay: concentration in adipose after dosing; settings: 2400 h; dosed: 2,3,7,8-Tetrachlorodibenzo-p-dioxin; 0.0001 mg/kg; oral; Female; Sprague-Dawley
Rat [13] = assay: concentration in adipose after dosing; settings: 8 h; dosed: 2,3,7,8-Tetrachlorodibenzo-p-dioxin; 0.0001 mg/kg; oral; Female; Sprague-Dawley
Rat [14] = assay: concentration in adipose after dosing; settings: 48 h; dosed: 2,3,7,8-Tetrachlorodibenzo-p-dioxin; 0.0001 mg/kg; oral; Female; Sprague-Dawley
Rat [15] = assay: concentration in adipose after dosing; settings: 960 h; dosed: 2,3,7,8-Tetrachlorodibenzo-p-dioxin; 0.00005 mg/kg; oral; Female; Sprague-Dawley
Rat [16] = assay: concentration in adipose after dosing; settings: dosed: 2,3,7,8-Tetrachlorodibenzo-p-dioxin, oral, Female, Sprague-Dawley
Rat [17] = assay: concentration in adipose after dosing; settings: 960 h; dosed: 2,3,7,8-Tetrachlorodibenzo-p-dioxin; 0.0001 mg/kg; oral; Female; Sprague-Dawley
Rat [18] = assay: concentration in adipose after dosing; settings: 480 h; dosed: 2,3,7,8-Tetrachlorodibenzo-p-dioxin; 0.0001 mg/kg; oral; Female; Sprague-Dawley
Rat [19] = assay: concentration in adipose after dosing; settings: 480 h; dosed: 2,3,7,8-Tetrachlorodibenzo-p-dioxin; 0.0001 mg/kg; oral; Female; Sprague-Dawley; remark: listed apart in the source
Rat [20] = assay: concentration in adipose after dosing; settings: 1680 h; dosed: 2,3,7,8-Tetrachlorodibenzo-p-dioxin; 0.0001 mg/kg; oral; Female; Sprague-Dawley; remark: listed apart in the source
Rat [21] = assay: concentration in adipose after dosing; settings: 960 h; dosed: 2,3,7,8-Tetrachlorodibenzo-p-dioxin; 0.0001 mg/kg; oral; Female; Sprague-Dawley; remark: listed apart in the source
Rat [22] = assay: concentration in adipose after dosing; settings: 48 h; dosed: 2,3,7,8-Tetrachlorodibenzo-p-dioxin; 0.0001 mg/kg; oral; Female; Sprague-Dawley; remark: listed apart in the source
Rat [23] = assay: concentration in adipose after dosing; settings: 960 h; dosed: 2,3,7,8-Tetrachlorodibenzo-p-dioxin; 0.0001 mg/kg; oral; Female; Sprague-Dawley; remark: listed apart in the source
Rat [24] = assay: concentration in adipose after dosing; settings: 480 h; dosed: 2,3,7,8-Tetrachlorodibenzo-p-dioxin; 0.0001 mg/kg; oral; Female; Sprague-Dawley; remark: listed apart in the source
Rat [25] = assay: concentration in adipose after dosing; settings: 48 h; dosed: 2,3,7,8-Tetrachlorodibenzo-p-dioxin; 0.0001 mg/kg; oral; Female; Sprague-Dawley; remark: listed apart in the source
Rat [26] = assay: concentration in adipose after dosing; settings: 48 h; dosed: 2,3,7,8-Tetrachlorodibenzo-p-dioxin; 0.0001 mg/kg; oral; Female; Sprague-Dawley; remark: listed apart in the source
Rat [27] = assay: concentration in adipose (perirenal) after dosing; settings: 960 h; dosed: 2,3,7,8-Tetrachlorodibenzo-p-dioxin; 0.0001 mg/kg; oral; Female; Sprague-Dawley
Rat [28] = assay: concentration in adipose (perirenal) after dosing; settings: 480 h; dosed: 2,3,7,8-Tetrachlorodibenzo-p-dioxin; 0.0001 mg/kg; oral; Female; Sprague-Dawley
Rat [29] = assay: concentration in adipose (perirenal) after dosing; settings: 480 h; dosed: 2,3,7,8-Tetrachlorodibenzo-p-dioxin; 0.0001 mg/kg; oral; Female; Sprague-Dawley; remark: listed apart in the source
Rat [30] = assay: concentration in adipose (perirenal) after dosing; settings: 1680 h; dosed: 2,3,7,8-Tetrachlorodibenzo-p-dioxin; 0.0001 mg/kg; oral; Female; Sprague-Dawley
Rat [31] = assay: concentration in adipose (perirenal) after dosing; settings: 48 h; dosed: 2,3,7,8-Tetrachlorodibenzo-p-dioxin; 0.00005 mg/kg; oral; Female; Sprague-Dawley
Rat [32] = assay: concentration in adipose (perirenal) after dosing; settings: dosed: 2,3,7,8-Tetrachlorodibenzo-p-dioxin, oral, Female, Sprague-Dawley
Rat [33] = assay: concentration in adipose (perirenal) after dosing; settings: 1680 h; dosed: 2,3,7,8-Tetrachlorodibenzo-p-dioxin; 0.0001 mg/kg; oral; Female; Sprague-Dawley; remark: listed apart in the source
Rat [34] = assay: concentration in adipose (perirenal) after dosing; settings: 48 h; dosed: 2,3,7,8-Tetrachlorodibenzo-p-dioxin; 0.0001 mg/kg; oral; Female; Sprague-Dawley
Rat [35] = assay: concentration in adipose (perirenal) after dosing; settings: 2400 h; dosed: 2,3,7,8-Tetrachlorodibenzo-p-dioxin; 0.0001 mg/kg; oral; Female; Sprague-Dawley
Rat [36] = assay: concentration in adipose (perirenal) after dosing; settings: 2400 h; dosed: 2,3,7,8-Tetrachlorodibenzo-p-dioxin; 0.0001 mg/kg; oral; Female; Sprague-Dawley; remark: listed apart in the source
Rat [37] = assay: concentration in adipose (perirenal) after dosing; settings: 960 h; dosed: 2,3,7,8-Tetrachlorodibenzo-p-dioxin; 0.0001 mg/kg; oral; Female; Sprague-Dawley; remark: listed apart in the source
Rat [38] = assay: concentration in adipose (perirenal) after dosing; settings: 960 h; dosed: 2,3,7,8-Tetrachlorodibenzo-p-dioxin; 0.0001 mg/kg; oral; Female; Sprague-Dawley; remark: listed apart in the source
Rat [39] = assay: concentration in adipose (perirenal) after dosing; settings: 48 h; dosed: 2,3,7,8-Tetrachlorodibenzo-p-dioxin; 0.00005 mg/kg; oral; Female; Sprague-Dawley; remark: listed apart in the source
Rat [40] = assay: concentration in adipose (perirenal) after dosing; settings: 1680 h; dosed: 2,3,7,8-Tetrachlorodibenzo-p-dioxin; 0.0001 mg/kg; oral; Female; Sprague-Dawley; remark: listed apart in the source
Rat [41] = assay: concentration in adipose (perirenal) after dosing; settings: 48 h; dosed: 2,3,7,8-Tetrachlorodibenzo-p-dioxin; 0.0001 mg/kg; oral; Female; Sprague-Dawley; remark: listed apart in the source
Rat [42] = assay: concentration in adipose (perirenal) after dosing; settings: 48 h; dosed: 2,3,7,8-Tetrachlorodibenzo-p-dioxin; 0.0001 mg/kg; oral; Female; Sprague-Dawley; remark: listed apart in the source
Rat [43] = assay: concentration in adipose (perirenal) after dosing; settings: 480 h; dosed: 2,3,7,8-Tetrachlorodibenzo-p-dioxin; 0.0001 mg/kg; oral; Female; Sprague-Dawley; remark: listed apart in the source
Rat [44] = assay: concentration in adipose (perirenal) after dosing; settings: 2400 h; dosed: 2,3,7,8-Tetrachlorodibenzo-p-dioxin; 0.0001 mg/kg; oral; Female; Sprague-Dawley; remark: listed apart in the source
Rat [45] = assay: concentration in adipose (perirenal) after dosing; settings: 48 h; dosed: 2,3,7,8-Tetrachlorodibenzo-p-dioxin; 0.0001 mg/kg; oral; Female; Sprague-Dawley; remark: listed apart in the source
Rat [46] = assay: concentration in adipose (perirenal) after dosing; settings: 48 h; dosed: 2,3,7,8-Tetrachlorodibenzo-p-dioxin; 0.0001 mg/kg; oral; Female; Sprague-Dawley; remark: listed apart in the source

Clc1cc2c(cc1Cl)Oc1cc(Cl)c(Cl)cc1O2 [2,3,7,8-Tetrachlorodibenzo-p-dioxin]
Settings | concentration in adipose, Rat [16] [pg/g] | concentration in adipose, Rat [32] [pg/g] | concentration in liver, Rat [3] [pg/g] | concentration in lung, Rat [1] [pg/g]
8 h, 0.00005 mg/kg | 120 | – | – | –
8 h, 0.0001 mg/kg | 218 | 135 | – | –
24 h, 0.00005 mg/kg | – | – | 472 | –
24 h, 0.0001 mg/kg | – | – | 1630 | –
48 h, 0.00005 mg/kg | – | 416 | – | –
48 h, 0.0001 mg/kg | 303 | 371 | – | –
480 h, 0.00005 mg/kg | 110 | 260 | 271 | –
480 h, 0.0001 mg/kg | 428 | 190 | 307 | –
960 h, 0.00005 mg/kg | 93 | 146 | 205 | 465
960 h, 0.0001 mg/kg | 171 | 172 | – | –
1680 h, 0.0001 mg/kg | 134 | 103 | 288 | 201
2400 h, 0.00005 mg/kg | 93 | – | – | –
2400 h, 0.0001 mg/kg | 156 | 112 | – | –

Settings | concentration in adipose [pg/g] | concentration in liver [pg/g]
Rat [2] | – | 1310
Rat [4] | – | 1200
Rat [5] | – | 1300
Rat [6] | – | 1450
Rat [7] | – | 515
Rat [9] | 220 | –
Rat [10] | 279 | –
Rat [11] | 95 | –
Rat [12] | 186 | –
Rat [13] | 260 | –
Rat [14] | 397 | –
Rat [15] | 116 | –
Rat [17] | 159 | –
Rat [18] | 372 | –
Rat [19] | 422 | –
Rat [20] | 152 | –
Rat [21] | 294 | –
Rat [22] | 497 | –
Rat [23] | 294 | –
Rat [24] | 537 | –
Rat [25] | 374 | –
Rat [26] | 292 | –
Rat [27] | 305 | –
Rat [28] | 483 | –
Rat [29] | 384 | –
Rat [30] | 212 | –
Rat [31] | 236 | –
Rat [33] | 143 | –
Rat [34] | 402 | –
Rat [35] | 271 | –
Rat [36] | 218 | –
Rat [37] | 264 | –
Rat [38] | 298 | –
Rat [39] | 148 | –
Rat [40] | 213 | –
Rat [41] | 260 | –
Rat [42] | 379 | –
Rat [43] | 490 | –
Rat [44] | 106 | –
Rat [45] | 407 | –
Rat [46] | 469 | –

Rat [8]
Settings | concentration in plasma [ng/mL]
1.5 h | 0.104
48 h | 0.631
144 h | 0.106
240 h | 0.161
360 h | 0.184
